Test results published in article PMC10247784, “Physiological activation of human and mouse bitter taste receptors by bile acids” (Communications Biology, 2023).
“And” between values parts separate entries of the source, which are not always exact repeats. Identical values can stand only once.

Target: T1, human TAS2R1 (Homo sapiens, UniProt Q9NYW7)
T1 construct: expressed in transfected cells; host or cells: HEK293T-Gα16gust44
T1 sequence (Q9NYW7 1-299): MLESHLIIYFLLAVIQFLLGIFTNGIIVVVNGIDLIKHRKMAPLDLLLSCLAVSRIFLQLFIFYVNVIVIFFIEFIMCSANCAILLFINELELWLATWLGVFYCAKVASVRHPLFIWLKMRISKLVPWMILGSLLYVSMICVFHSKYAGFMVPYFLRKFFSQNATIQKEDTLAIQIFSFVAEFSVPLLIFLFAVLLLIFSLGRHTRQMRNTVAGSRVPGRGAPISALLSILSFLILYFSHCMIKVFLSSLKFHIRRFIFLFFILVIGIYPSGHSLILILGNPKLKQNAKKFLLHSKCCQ
Assay: Calcium imaging assay (FLIPR), HEK293T-Gα16gust44 cells transfected with human TAS2R1
Type: cell-based
Summary of the method: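 Fluo-4 calcium responses; ΔF/F corrected for mock transfection and buffer control; triplicate independent dose-response runs; p < 0.01 threshold.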

With `C[C@H](CCC(=O)O)[C@H]1CC[C@H]2[C@@H]3[C@@H](O)C[C@@H]4C[C@H](O)CC[C@]4(C)[C@H]3CC[C@]12C` [Ursodeoxycholic Acid, ursodeoxycholic acid] the “Efficacy = maximal amplitude (ΔF/F)” value (TAS2R1, bile acids, mean) was 0.1201, the “Efficacy (maximal amplitude ΔF/F), individual data points” value (TAS2R1, bile acids, single replicates, listed as UDCA) was 0.1146 and 0.1323 and 0.1134 and the RLU (Time 0 s) was 0 RLU. The RLU (Time 2.015 s) was -1.909 RLU, the RLU (Time 4.015 s) was -10.1979 RLU and the RLU (Time 6.015 s) was -25.0303 RLU. The RLU (Time 8.015 s) was -6.66 RLU, the RLU (Time 12.015 s) was -0.9118 RLU and the RLU (Time 14.015 s) was -27.1256 RLU. It also gave an RLU (Time 16.015 s) of -36.3442 RLU, an RLU (Time 18.015 s) of -16.5405 RLU and an RLU (Time 18.796 s) of -5.241 RLU. It also gave an RLU (Time 20.796 s) of -5.4345 RLU, an RLU (Time 22.796 s) of -14.9172 RLU and an RLU (Time 24.796 s) of 111.581 RLU. It also gave an RLU (Time 26.796 s) of 220.014 RLU, an RLU (Time 28.796 s) of 332.008 RLU and an RLU (Time 30.796 s) of 471.987 RLU. It also gave an RLU (Time 32.796 s) of 554.696 RLU, an RLU (Time 34.796 s) of 591.628 RLU and an RLU (Time 36.796 s) of 614.691 RLU. The RLU (Time 38.796 s) was 661.973 RLU, the RLU (Time 40.796 s) was 688.451 RLU and the RLU (Time 42.796 s) was 682.803 RLU. The RLU (Time 44.796 s) was 694.821 RLU, the RLU (Time 46.796 s) was 713.853 RLU and the RLU (Time 48.796 s) was 712.245 RLU. It also gave an RLU (Time 50.796 s) of 701.71 RLU, an RLU (Time 52.796 s) of 706.484 RLU and an RLU (Time 54.796 s) of 693.141 RLU. For the same compound, the RLU (Time 56.796 s) was 703.514 RLU, the RLU (Time 58.796 s) was 690.888 RLU and the RLU (Time 60.796 s) was 687.968 RLU. The RLU (Time 62.796 s) was 660.683 RLU, the RLU (Time 64.796 s) was 647.003 RLU and the RLU (Time 66.796 s) was 672.518 RLU. The RLU (Time 68.796 s) was 641.326 RLU, the RLU (Time 70.796 s) was 644.562 RLU and the RLU (Time 72.796 s) was 618.535 RLU. The RLU (Time 74.796 s) was 611.038 RLU, the RLU (Time 76.796 s) was 596.187 RLU and the RLU (Time 78.796 s) was 593.169 RLU. It also gave an RLU (Time 80.796 s) of 594.173 RLU, an RLU (Time 82.796 s) of 573.074 RLU and an RLU (Time 84.796 s) of 565.693 RLU. For the same compound, the RLU (Time 86.796 s) was 545.003 RLU, the RLU (Time 88.796 s) was 536.557 RLU and the RLU (Time 90.796 s) was 528.103 RLU. It also gave an RLU (Time 92.796 s) of 490.474 RLU, an RLU (Time 94.796 s) of 507.179 RLU and an RLU (Time 96.796 s) of 484.826 RLU. For the same compound, the RLU (Time 98.796 s) was 487.253 RLU, the RLU (Time 100.796 s) was 484.348 RLU and the RLU (Time 102.796 s) was 464.491 RLU. It also gave an RLU (Time 104.796 s) of 467.659 RLU, an RLU (Time 106.796 s) of 432.725 RLU and an RLU (Time 108.796 s) of 406.747 RLU. The RLU (Time 110.796 s) was 379.699 RLU, the RLU (Time 112.796 s) was 357.544 RLU and the RLU (Time 114.796 s) was 362.533 RLU. It also gave an RLU (Time 116.796 s) of 332.202 RLU, an RLU (Time 118.796 s) of 323.517 RLU and an RLU (Time 120.796 s) of 321.799 RLU. The RLU (Time 122.796 s) was 311.834 RLU, the RLU (Time 124.796 s) was 301.938 RLU and the RLU (Time 126.796 s) was 306.062 RLU. It also gave an RLU (Time 128.796 s) of 271.359 RLU, an RLU (Time 130.796 s) of 275.474 RLU and an RLU (Time 132.796 s) of 247.428 RLU. It also gave an RLU (Time 134.796 s) of 253.899 RLU, an RLU (Time 136.796 s) of 243.041 RLU and an RLU (Time 137.562 s) of 220.326 RLU. For the same compound, the RLU (Time 143.562 s) was 203.668 RLU, the RLU (Time 149.562 s) was 176.37 RLU and the RLU (Time 155.562 s) was 166.486 RLU. For the same compound, the RLU (Time 161.562 s) was 168.826 RLU, the RLU (Time 167.562 s) was 116.188 RLU and the RLU (Time 173.562 s) was 124.68 RLU. The RLU (Time 179.562 s) was 97.5703 RLU, the RLU (Time 185.562 s) was 83.8515 RLU and the RLU (Time 191.562 s) was 81.5894 RLU. The RLU (Time 197.562 s) was 63.0668 RLU, the RLU (Time 203.562 s) was 46.8203 RLU and the RLU (Time 209.562 s) was 23.6957 RLU. It also gave an RLU (Time 215.562 s) of 20.9611 RLU, an RLU (Time 221.562 s) of 21.314 RLU and an RLU (Time 227.562 s) of 32.3726 RLU. It also gave an RLU (Time 233.562 s) of 4.71 RLU, an RLU (Time 239.562 s) of 3.353 RLU and an RLU (Time 245.562 s) of -15.0975 RLU. The RLU (Time 293.562 s) was -21.0295 RLU, the RLU (Time 299.562 s) was -10.1171 RLU and the RLU (calcium trace, sheet TAS2R1, Time 305.562 s) was -21.932 RLU. The RLU (calcium trace, sheet TAS2R1, Time 311.562 s) was -35.6948 RLU, the RLU (calcium trace, sheet TAS2R1, Time 317.562 s) was -15.7818 RLU and the RLU (calcium trace, sheet TAS2R1, Time 323.562 s) was -21.7457 RLU. It also gave an RLU (calcium trace, sheet TAS2R1, Time 329.562 s) of -25.1818 RLU, an RLU (calcium trace, sheet TAS2R1, Time 335.562 s) of -20.2182 RLU and an RLU (calcium trace, sheet TAS2R1, Time 341.562 s) of 10.616 RLU. The RLU (calcium trace, sheet TAS2R1, Time 347.562 s) was -20.1556 RLU, the RLU (calcium trace, sheet TAS2R1, Time 353.562 s) was -12.0438 RLU and the RLU (calcium trace, sheet TAS2R1, Time 359.562 s) was -31.063 RLU. For the same compound, the “Δ F/F” value (conc. 0,01 mM, TAS2R1) was 0.05863, the “Δ F/F” value (conc. 0,03 mM, TAS2R1) was 0.1201 and the “Δ F/F” value (conc. 0,0001 mM, TAS2R1) was -0.003399. The “Δ F/F” value (conc. 0,0003 mM, TAS2R1) was 0.009061, the “Δ F/F” value (conc. 0,001 mM, TAS2R1) was 0.007937 and the “Δ F/F” value (conc. 0,003 mM, TAS2R1) was 0.01609. For the same compound, the “Activation threshold concentration TAS2R1” value (lowest concentration with significantly increased fluorescence vs empty vector (p < 0.01)) was 3 µM and 3.00 µM.
